Data: PubChem BioAssay (NCI)
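Each compound was tested at five concentrations against cells in 96-well plates for 48 hours. Abbreviation: GI50, concentration required for 50% inhibition of growth. Definition used: TGI = concentration required for complete inhibition of growth.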

Columns and labels:
Assay in all cases: growth of human tumour cells (NCI), 48 h
[1] = system: HL-60(TB) leukemia
[2] = system: M14 melanoma
[3] = system: NCI-H460 lung
[4] = system: OVCAR-4 ovarian
[5] = system: SF-539 CNS
[6] = system: MCF7 breast
[7] = system: MDA-MB-231 breast
[8] = system: HCC-2998 colon
[9] = system: SR leukemia

SMILES	GI50 [1] [µM]	TGI [1] [µM]	GI50 [2] [µM]	TGI [2] [µM]	GI50 [3] [µM]	TGI [3] [µM]	GI50 [4] [µM]	TGI [4] [µM]	GI50 [5] [µM]	TGI [5] [µM]	GI50 [6] [µM]	TGI [6] [µM]	GI50 [7] [µM]	TGI [7] [µM]	GI50 [8] [µM]	TGI [8] [µM]	GI50 [9] [µM]	TGI [9] [µM]
O=C(NC1CCN(Cc2ccccc2)CC1)c1cc(-c2ccncc2)nc2ccc(Cl)cc12	17.3	59.6	7.02	34.9	11.4	33.7	10.7	59.6	13.1	35.9	5.66	30.6	4.5	> 59.9	21.6	> 91.1	6.82	34.8
C=CC[n+]1c(/C=C/C=C2\N(C)c3ccccc3C2(C)C)sc2ccc(OC)cc21	0.156	0.732	0.331	2.59	0.199	12.1	0.114	28.5	0.329	13.9	0.157	11.4	0.272	1.65	0.258	21.3	0.101	7.12
F	2360	> 6870	2260	5900	5410	> 6870	> 6870	> 6870	1770	4620	4020	> 6870	2660	> 6870	2610	6190	> 6870	> 6870
CC(=O)N[C@@H](Cc1ccc(OP(=O)(O)O)cc1)C(=O)N[C@H]1CCC(=O)N2CCC[C@@H](C(=O)NCc3ccc(Cl)cc3)N2C1=O	> 25	> 25	> 25	> 25	> 25	> 25	> 25	> 25	> 25	> 25	> 25	> 25	> 25	> 25	> 25	> 25	> 25	> 25
N#Cc1c(-c2ccccc2)nc(SCC2CO2)nc1N1CCOCC1 (stereo unspecified)	8.88	> 100	13.4	> 100	6.59	> 100	52.7	> 100	10.6	> 95.4	3.06	> 100	15.8	> 100	0.253	18.2	12.3	> 53.3
COc1ccc2[nH]c(=O)c3c4ccccc4cn3c2c1	0.186	0.548	0.494	1.92	0.19	1.31	0.532	2.78	0.657	2.53	0.153	0.969	1.24	5.85	0.332	0.807	0.125	0.842
Cc1c2cc[n+](C)cc2c(C)c2c1sc1ccccc12		28.4		14.2		6.02		11.4		2.01		41.8		11.2		6.28		9.54
COc1c(C=O)c2c(c(OC)c1OC)-c1ccc(OC)c(=O)cc1[C@@H](NC(C)=O)CC2		0.0717		> 25.2		18.7		> 100		0.0644		28.4		> 100		34.4		> 100
